Values quoted from earlier work in patent publication US12263152B2, “Method of preventing and treating chemotherapy-induced alopecia” (JJR&D, LLC, priority 2022, dated 2025).
Where two headings read alike, the source gives them in different places.

Experiments:
CIA [1] = settings: studies on humans
CIA [2] = settings: neonatal rat model
[3] = system: most commonly used alopecic chemotherapies; settings: topical pretreatment, rats
[4] = system: cyclophosphamide-induced alopecia; settings: animal studies

Cl[TeH]1(Cl)(Cl)OCCO1 [AS101]
Protective role against CIA (CIA [1]): protective role | Protective role against CIA (CIA [2]): protective role

C=C1/C(=C\C=C2/CCC[C@]3(C)[C@@H]([C@H](C)CCCC(C)(C)O)CC[C@@H]23)C[C@@H](O)C[C@@H]1O [Calcitriol, 1,25-(OH)2D3]
Protection from the most commonly used alopecic chemotherapies [3]: protected | Patients with alopecia of <50% from baseline (alopecia; Week 7, of 23 female patients, topical 5-80 μg/mL twice daily): 8 patients | Patients with <50% alopecia maintained (alopecia; Week 15, of 23 female patients, topical 5-80 μg/mL twice daily): 2 patients | Maximum tolerated dose (alopecia; topical drug product, dose escalation up to 80 μg/mL twice daily): not reached

epidermal growth factor
Protection from cyclophosphamide (CTX)-induced alopecia [4]: lack of protection

recombinant interleukin 1 β: recombinant interleukin 1 β
Protection from cyclophosphamide (CTX)-induced alopecia [4]: lack of protection
